Source: PubChem BioAssay (NCI)
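Exposure lasted 48 hours, with cells grown in 96-well plates and compounds tested at five concentrations. At the GI50, growth is halved. TGI denotes the concentration required for complete inhibition of growth.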

Legend:
Assay in all cases: DTP human tumour cell line panel, 48 h
OVCAR-4 ovarian = system: OVCAR-4 ovarian
NCI-H460 lung = system: NCI-H460 lung
HCT-15 colon = system: HCT-15 colon
EKVX NSCLC = system: EKVX NSCLC
OVCAR-8 ovarian = system: OVCAR-8 ovarian
MDA-MB-435 = system: MDA-MB-435
PC-3 prostate = system: PC-3 prostate
MOLT-4 leukemia = system: MOLT-4 leukemia
MALME-3M melanoma = system: MALME-3M melanoma
CCRF-CEM leukemia = system: CCRF-CEM leukemia
K-562 leukemia = system: K-562 leukemia
MDA-N = system: MDA-N
SF-295 CNS = system: SF-295 CNS
HL-60(TB) leukemia = system: HL-60(TB) leukemia
SF-268 CNS = system: SF-268 CNS
U251 CNS = system: U251 CNS
UACC-62 melanoma = system: UACC-62 melanoma
UACC-257 melanoma = system: UACC-257 melanoma

Row | SMILES | TGI (OVCAR-4 ovarian) [µM] | TGI (NCI-H460 lung) [µM] | TGI (HCT-15 colon) [µM] | TGI (EKVX NSCLC) [µM] | TGI (OVCAR-8 ovarian) [µM] | TGI (MDA-MB-435) [µM] | TGI (PC-3 prostate) [µM] | TGI (MOLT-4 leukemia) [µM] | TGI (MALME-3M melanoma) [µM] | TGI (CCRF-CEM leukemia) [µM] | TGI (K-562 leukemia) [µM] | TGI (MDA-N) [µM] | TGI (SF-295 CNS) [µM] | TGI (HL-60(TB) leukemia) [µM] | TGI (SF-268 CNS) [µM] | TGI (U251 CNS) [µM] | TGI (UACC-62 melanoma) [µM] | TGI (UACC-257 melanoma) [µM] | GI50 (UACC-257 melanoma) [µM] | GI50 (SF-268 CNS) [µM]
1 | C#CCN(C(=O)C(F)(F)F)C(/C=C\C(=O)OC)(C(=O)OCC)C(=O)OCC | > 100 | > 100 | > 100 | > 100 | > 100 | > 100 | > 100 | > 100 | > 100 | > 100 | > 100 | > 100 | > 100 | > 100 | > 100 | > 100 | > 100 |  |  | 
2 | C[C@H]1CCC/C=C/[C@@H]2C[C@H](OC(=O)CN(C)C)C[C@H]2[C@H](O)/C=C/C(=O)O1 | 9.64 | 4.05 | 5.54 | 22.2 | 5.54 | > 100 | 8.74 | 2.79 | 0.15 | > 100 | > 100 | > 100 | > 100 | 6.2 | > 100 | > 100 | 22.1 | 27.8 |  | 
3 | Cc1nc2ccccc2n1Cc1nnc(-c2ccccc2)o1 |  | > 100 | > 100 | > 100 | > 100 | 0.692 | > 100 | > 100 | > 100 | > 100 | > 100 | > 100 | > 100 | > 100 | > 100 | > 100 | > 100 | > 100 |  | 
4 | Cc1nc2ccc(S(=O)(=O)O)cc2c(=O)n1-c1ccc(C(=O)NN2C(=O)C(Cl)C2c2cccs2)cc1 (stereo unspecified) | 79.7 | > 100 | > 100 | 35.3 | > 100 | 89.8 | > 100 | > 100 | > 100 | > 100 | > 100 | 80.2 | > 100 | 51.8 | 44.3 | > 100 | > 100 | > 100 |  | 
5 | COC(=O)/C(=N\N)C(C(=O)C(=O)Nc1cc(Cl)ccc1Cl)c1nc2ccc([N+](=O)[O-])cc2[nH]c1=O (stereo unspecified) | > 100 | > 100 | > 100 | > 100 | > 100 | > 100 | > 100 | > 100 | > 100 | > 100 | > 100 | > 100 | > 100 | > 100 | > 100 | > 100 | > 100 | > 100 |  | 
6 | O=C1C(Cl)=CC2(C=C1Cl)CCN=c1c(O)c3c(c(O)c12)=NC=N3 | > 100 | > 100 | > 100 | > 100 | > 100 | 32.7 | > 100 | > 100 | 43.4 | > 100 | > 100 | 33.6 | > 100 | 53.6 | > 100 | 71.9 | 34.7 | 52.4 |  | 
7 | COc1ccc(OC/C(N)=N/NC(=O)c2ccncc2)cc1 | > 100 | > 100 | > 100 | > 100 | > 100 | > 100 | > 100 | > 100 | > 100 | > 100 | > 100 | > 100 | > 100 | > 100 | > 100 | > 100 | > 100 | > 100 |  | 
8 | NC(CCC(=O)O)C(=O)NC(Cc1ccc(N(CCCl)CCCl)cc1)C(=O)O (stereo unspecified) | > 100 | > 100 | > 100 | > 100 | > 100 | > 100 | > 100 | > 100 | > 100 | > 100 | > 100 | > 100 | > 100 | > 100 | > 100 | > 100 | > 100 | > 100 |  | 
9 | C=CCN(c1cc(O)c2c(c(C)cn2S(=O)(=O)c2ccccc2)c1[N+](=O)[O-])S(C)(=O)=O | > 100 | > 100 | > 100 | > 100 | > 100 | 74.7 | > 100 | > 100 | > 100 | > 100 | > 100 | > 100 | > 100 | > 100 | > 100 | > 100 |  | > 100 |  | 
10 | CC(C)=CCC[C@@H](C)C1=C(N)C(O)=C(C)C(=O)C1=O | > 75 | > 75 | > 75 | > 75 | > 61.2 | > 75 | > 75 | > 67.5 | > 75 | > 70.9 | > 75 | > 75 | > 75 | 39.5 | > 75 | > 75 | > 75 | > 75 |  | 
11 | COc1ccc(NC(=S)c2ccc([N+](=O)[O-])o2)cc1 | 3.07 | 5.72 | 3.56 | 7.78 | 13.1 | 5.66 | 2.97 | 13.9 | 7.83 | 8.66 | 7.55 | 6.11 | 10.6 | 5.89 | 9.76 | 2.55 | 3.47 | 7.2 |  | 
12 | CCCCCC(=O)OC[n+]1cccc(-c2c(COC(=O)NC(C)C)c(COC(=O)NC(C)C)c3n2CCC3)c1 | > 100 | > 100 | > 100 | > 100 | > 100 | > 100 | > 100 | > 71.1 | > 100 | > 61 | > 100 | > 100 | > 100 | > 100 | > 100 | > 100 | 89.2 | > 100 |  | 
13 | Cc1nn(C(=O)Cc2ccccc2)c2c1C(c1ccc(/C=C/c3ccccc3)cc1)SC(N)=N2 (stereo unspecified) |  | > 100 | > 100 | > 100 | > 100 | > 100 | > 100 | > 100 | > 100 | > 100 | > 100 | > 100 | > 100 | > 100 | > 100 |  | > 100 | > 100 |  | 
14 | CC1(c2ccc(Cl)cc2)C=C(c2ccc(Cl)cc2)C(C#N)=C(C(C#N)C#N)N1 (stereo unspecified) | 32.6 | 52.9 | 30.4 | 31.3 | 30.7 | 34.5 | 31.5 | 47 | 29.1 | > 100 | > 100 | 31.8 | 33.9 | 41.1 | 23.9 | 33 | 28.2 | 37.3 |  | 
15 | Cc1ccc2c(c1C)CC1(Cc3ccc(C)c(C)c3C1=O)C2=O (stereo unspecified) | > 100 | > 100 | > 100 | > 100 | > 100 | > 100 | > 100 | > 100 | > 100 | > 100 | > 100 | > 100 | > 100 | > 100 | > 100 | > 100 | > 100 | > 100 |  | 
16 | CC(C)(C)OC(=O)/N=C/c1c(O)c2ccccc2oc1=O | > 100 | > 100 | > 100 | > 100 | > 100 | > 100 | > 100 | > 100 | > 100 | > 100 | > 100 | > 100 | > 100 | > 100 | > 100 | > 100 | > 100 | > 100 |  | 
17 | COC(=O)C(=O)C(C(=O)C(=O)Nc1cccc(OC)c1)c1nc2ccc(Cl)cc2[nH]c1=O (stereo unspecified) | > 100 | > 100 | > 100 | > 100 | > 100 | > 100 | > 100 | > 100 | > 100 | > 100 | > 100 | > 100 | > 100 | > 100 | > 100 | > 100 | > 100 | > 100 |  | 
18 | O=C(/C=C/c1ccccc1)CCN1CCCCC1 | > 100 | > 100 | > 100 | > 100 | 38.4 | 84.4 | > 100 | 63.1 | > 100 | > 100 | > 100 | 60.1 | > 100 | > 100 | > 100 | 65.6 | > 100 | > 100 |  | 
19 | O=c1oc2ccccc2c(-c2ccc(O)cc2)c1Oc1ccccc1 | > 56.7 | 20.5 | > 70 | 49.9 | > 31.6 | > 100 | > 96.1 | > 100 | 9.26 | > 100 | > 100 | 58.5 | 53.6 | > 100 | 25.6 | 24.9 | 18.6 | 30.7 |  | 
20 | Cc1cnc2[nH]c(-c3cccc4ccccc34)cc(=O)c2c1 | > 100 | > 100 | 0.935 | > 100 | 0.108 | 0.000499 | > 100 | > 100 | 0.000989 | > 100 | > 100 | 0.000572 | > 100 | 0.000577 | > 100 | 0.0129 | > 100 | > 100 | 15 | 6.51
21 | Nc1ccc2c(=S)c3ccccc3[nH]c2c1 | > 100 | > 100 | > 100 | > 100 | > 100 | > 100 | > 100 | > 84.4 | > 100 | > 95.4 | > 100 | > 100 | > 100 | > 100 | > 100 | > 100 | > 100 | > 100 |  | 
22 | Cc1nc2ccc(N=Nc3c(C)noc3C)cc2[nH]1 | > 100 | > 100 | > 100 | > 100 | 89.6 | > 100 | > 100 | 58.5 | > 100 | > 100 | > 100 | > 100 | > 100 | 61.6 | > 100 | > 100 | 75.9 | > 100 |  | 
23 | CC(=O)n1c2ccc(Br)cc2c2nc3ccccc3nc21 | > 100 | > 100 | > 100 | > 100 | > 100 | > 100 | > 100 | > 100 | > 100 | > 100 | > 100 | > 100 | > 100 | > 100 | > 100 | > 100 | > 100 | > 100 |  | 
